The values below come from US20240124389A1, “COMPOUND OR SALT THEREOF, LIPID PARTICLES, AND PHARMACEUTICAL COMPOSITION” (FUJIFILM Corporation, priority 2021, published 2024).

Holding throughout (format): physicochemical
Data set [1] in a line: Particle size of EPO mRNA-encapsulating lipid particles. Conditions: aminolipid 50 / DOPE 10 / cholesterol 38.5 / DMG-PEG2000 1.5 mol %, lipid/nucleic acid 64 wt/wt. Put shortly:
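Lipid particles made from ethanol lipid phase (20 mmol/L total lipid, with DSPC, DOPE or DOPC, cholesterol, DMG-PEG2000) and EPO mRNA in pH 4 citrate buffer (lipid:mRNA about 16:1 to 64:1 w/w), mixed 3:1 aqueous:oil, then dialyzed against 10% sucrose. Size measured after 10-fold PBS dilution by light-scattering analyzer.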

In the next data set the test system is EPO mRNA. The experiment in a line: mRNA encapsulation rate of EPO mRNA-encapsulating lipid particles. Conditions: aminolipid 50 / DOPE 10 / cholesterol 38.5 / DMG-PEG2000 1.5 mol %, lipid/nucleic acid 64 wt/wt. Put shortly: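 Lipid particles made by mixing lipids in ethanol (20 mmol/L total) with EPO mRNA in 50 mmol/L citrate pH 4 (lipid:mRNA weight ratio about 16:1–64:1), then dialysed against 10% sucrose. Total mRNA measured after ethanol precipitation; outer-phase mRNA by RiboGreen fluorescence (ex 485/em 535 nm). Encapsulation (%) = (total − outer)/total × 100.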

A further data set relates to FLuc mRNA. The data set can be described thus: mRNA encapsulation rate of FLuc mRNA-encapsulating lipid particles. The method, then:
The compounds described in Table 2, the neutral lipid, cholesterol (product name: Cholesterol HP; NTPPON FINE CHEMICAL CO., LTD.), and 1,2-dimyristoyl-rac-glycero-3-(methylpolyoxyethylene 2000) (hereinafter, called DMG-PEG2000) were dissolved in ethanol at a molar ratio in Table 2 such that the total lipid concentration became 20 mmol/L, thereby obtaining an oil phase.
As the neutral lipid, 1,2-distearoyl-sn-glycero-3-phosphocholine (product name: COATSOME® MC-8080; NOF corporation) was used in a case of Comparative Example 1, and L-α-dioleoylphosphatidylethanolamine (product name: COATSOME® MC-8181; NOF corporation) was used in a case other than Comparative Example 1.
FLuc mRNA (product name: CleanCap FLuc mRNA (5 moU); TriLink) was diluted with 50 mmol/L citrate buffer having a pH 4 such that the weight ratio of total lipid concentration to mRNA concentration is about 19:1 to 64:1, obtaining a water phase. Then, the water phase and the oil phase were mixed together using NanoAssemblr (Precision NanoSystems) such that the volume ratio of water phase:oil phase was 3:1, and the mixed solution was 1.5-fold diluted with phosphate buffered saline (PBS), thereby obtaining a dispersion liquid of mRNA lipid particles. The dispersion liquid was dialyzed with a 10% aqueous sucrose solution using a dialysis cassette (Slide-A-Lyzer G2, MWCO: 10 kD, Thermo Fisher Scientific) to remove ethanol, thereby obtaining FLuc mRNA-encapsulating lipid particles.
15 to 30 μL of a 3 mol/L aqueous sodium acetate solution and 4.5 to 9 μL of glycogen were added to 30 to 60 μL of the lipid particles retaining mRNA, and 0.75 to 1.5 mL of ethanol was added thereto, so that only the nucleic acids were precipitated while the lipid was dissolved. Then, the supernatant was removed by centrifugation. The precipitates were air-dried for 15 minutes or longer, then water was added thereto to redissolve the precipitates, and the concentration thereof was measured using Nanodrop NF1000 (Thermo Fisher Scientific), thereby quantifying the total mRNA concentration.
The mRNA concentration was quantified using a Quant-iT RiboGreen RNA Assay Kit (Thermo Fisher Scientific) according to the protocol. First, a 20×TE buffer included in the above-described kit was diluted with water, thereby obtaining a 1×TE buffer. TE represents Tris/EDTA (ethylenediaminetetraacetic acid). In order to quantify only mRNA in the outer water phase, the dispersion liquid of lipid particles retaining mRNA was 10,000-fold diluted with the 1×TE buffer. 100 μL of the 10,000-fold diluted dispersion liquid of lipid particles was put into a 96-well plate, then 100 μL of a RiboGreen reagent (reagent included in the Quanti-iT Ribogreen RNA Assay Kit described above) 2,000-fold diluted with the 1×TE buffer was added to a sample, and fluorescence (excitation wavelength: 485 nm, fluorescence wavelength: 535 nm) was measured using a plate reader Infinite F200 (TECAN), thereby quantifying the mRNA concentration in the outer water phase.
By using the quantification results of the total mRNA concentration and the mRNA concentration in the outer water phase that were obtained through the above steps, the mRNA encapsulation rate of the mRNA lipid particles was calculated according to the following Equation.
mRNA encapsulation rate (%)=(total mRNA concentration-mRNA concentration in outer water phase)/total mRNA concentration×100

The mark [2] stands for this setting: aminolipid 45 / DOPE 10 / cholesterol 43.5 / DMG-PEG2000 1.5 mol %, lipid/nucleic acid 32 wt/wt.

In the case of `CCCCCCC(CCCC)COC(=O)CCCC(CCCCCC)OC(=O)OCCN(CCOC(=O)OC(CCCCCC)CCCC(=O)OCC(CCCC)CCCCCC)CCN(CC)CC` (stereo not drawn) [Example 8, Bis(2-butyloctyl) 11-(2-(diethylamino)ethyl)-5,17-dihexyl-7,15-dioxo-6,8,14,16-tetraoxa-11-azahenicosanedioate], in data set [1], the Particle size came to 81.3 nm. In addition, in the data set with EPO mRNA, the “Nucleic acid encapsulation rate” value was found to be 98.0%.

Consider `CCCCCCC(CCCC(=O)OCC(CCCCC)CCCCC)OC(=O)OCCN(CCCN(CC)CC)CCOC(=O)OC(CCCCCC)CCCC(=O)OCC(CCCCC)CCCCC` (stereo not drawn) [Example 13, Bis(2-pentylheptyl) 11-(3-(diethylamino)propyl)-5,17-dihexyl-7,15-dioxo-6,8,14,16-tetraoxa-11-azahenicosanedio ate], for which the Particle size in data set [1] was 79.5 nm. Besides, the “Nucleic acid encapsulation rate” value with FLuc mRNA (setting [2]) was found to be 99.1%; in the data set with EPO mRNA it was 98.5%.

In data set [1], `CCCCCC(CCCCC)COC(=O)CCCC(CCC)OC(=O)OCCN(CCOC(=O)OC(CCC)CCCC(=O)OCC(CCCCC)CCCCC)CCN(CC)CC` (stereo not drawn) [Example 21, Bis(2-pentylheptyl) 11-(2-(diethylamino)ethyl)-7,15-dioxo-5,17-dipropyl-6,8,14,16-tetraoxa-11-azahenicosanedioate] registered a Particle size of 109.4 nm. In addition, the “Nucleic acid encapsulation rate” value is listed as 98.4% in the data set with FLuc mRNA (setting [2]) and 99.9% in the data set on EPO mRNA.

Compound `CCCCCCCOC(=O)CCCC(CCCC(=O)OCCCCCCC)OC(=O)OCCN(CCOC(=O)OC(CCCC(=O)OCCCCCCC)CCCC(=O)OCCCCCCC)CCN(CC)CC` [Example 29, diheptyl 11-(2-(diethylamino)ethyl)-5,17-bis(4-(heptyloxy)-4-oxobutyl)-7,15-dioxo-6,8,14,16-tetraoxa-11-azahenicosanedioate] returned a Particle size in data set [1] of 108.7 nm. The “Nucleic acid encapsulation rate” value was 100.0% in the data set on FLuc mRNA (aminolipid 40 / DOPE 10 / cholesterol 48.5 / DMG-PEG2000 1.5 mol %, lipid/nucleic acid 64 wt/wt); 95.0% with FLuc mRNA (setting [2]); 100.0% in the data set with FLuc mRNA (aminolipid 50 / DOPE 10 / cholesterol 38.5 / DMG-PEG2000 1.5 mol %, lipid/nucleic acid 64 wt/wt); 97.1% in the data set with EPO mRNA.

The compound `CCCCCCCOC(=O)CCCC(CCCC(=O)OCCCCCCC)OC(=O)OCCN(CCOC(=O)OC(CCCC(=O)OCCCCCC)CCCC(=O)OCCCCCC)CCN(CC)CC` [Example 37, 1-Heptyl 21-hexyl 11-(2-(diethylamino)ethyl)-5-(4-(heptyloxy)-4-oxobutyl)-17-(4-(hexyloxy)-4-oxobutyl)-7,15-d ioxo-6,8,14,16-tetraoxa-11-azahenicosanedioate] displayed a Particle size in data set [1] of 136.1 nm. The “Nucleic acid encapsulation rate” value in the data set with EPO mRNA is reported as 99.0%.
